# Measurements: patent US9993447B2, “Systems and methods for increasing agmatine cellular uptake by oral administration” (priority 2015, dated 2018)
# What was measured:
# [1] = 300 mg daily for 6 weeks, young healthy trained athletes; cited from earlier work
# [2] = cited from earlier work
# [3] = concentration of 1 mM; cited from earlier work
# rat = rat experimental model; cited from earlier work
# pH of buffer media = format: physicochemical; settings: room temperature
# From the text: Crea-Trona® is also known as buffered creatine. During the fabrication process, AlzChem uses a double buffer from sodium carbonate and sodium bi-carbonate, both natural minerals, which creates an alkaline environment with a pH value between 8 and 12. Crea-Trona is more efficient than other types of creatine, including those with an alkaline pH-buffer (kre-alkalynes). The double buffer prevents the pH-value in the muscles from dropping rapidly during the workout. This may lead to a larger training volume and may stimulate faster recovery of the original pH-value after the workout.
# To maximize the benefits of oral administration of agmatine salts according to embodiments of the present disclosure, a buffer media may be used in formulations, or a stable mono-protonated or neutral form of such agmatine salts should be administered instead. As reflected in the formulations described above according to embodiments of the present disclosure, different buffer media have been used including Crea-Trona (such as that offered by AlzChem), arginine base, as well as Effer-Soda (such as that offered by SPI Pharma). However, it should be appreciated that other buffer media, such as potassium carbonate or potassium bicarbonate, may be utilized without departing from the present disclosure. Such buffer media may elevate the pH of the formulation. […]
# [4] = prior intake, trained young men; cited from earlier work
# [5] = pH of 1% agmatine salt solutions in purified water at room temperature; format: physicochemical; settings: 1% in purified water
# From the text: Compounds and formulations according to embodiments of the present disclosure may provide a method to increase cellular uptake of agmatine in an animal or human. It should be appreciated that agmatine uptake may increase dramatically with increasing pH, and protonation of the amino group of agmatine is dependent on pH. The guanidinium group in agmatine has a pH of about 12.5 in aqueous solution while the amino group in agmatine has a pH of about 9. At the physiological pH, agmatine may be protonated and thus, requires transporters for uptake into the cells to occur. The fraction of the molecules having a single positive charge may increase as pH increases. […] This is reflected in FIGS. 1 and 2.
# [6] = Titration of 1% agmatine salt solutions with aqueous 0.1N HCl; format: physicochemical; settings: 1% solution titrated with 0.1N HCl
# Protocol: FIG. 1 depicts a graphical representation of 1% agmatine salt solutions in a titration with an aqueous 0.1N HCl solution according to an embodiment of the present disclosure;
# (§1) The pH dependence has been evaluated in acidic as well as basic conditions. […] About 15 mL of 0.1N HCl may be used to lower the pH of agmatine phosphate at around 3 while other agmatine salts, at the same concentration and in the same measuring conditions, required approximately 2-4 mL to change to an acidic pH. The same kind of behavior was observed when solutions of agmatine salts were titrated with a solution of agmatine base. About 20 mL were required to make the pH alkaline (above 8) in the case of agmatine phosphate, while other agmatine salts required approximately 2-3 mL to achieve the same pH range. Taking these observations into consideration along with the fact that better uptake of agmatine is observed at a higher pH, it should be appreciated that agmatine dihydrochloride and agmatine phosphate may be more desirable agmatine salts than agmatine sulfate for improving bioavailability of orally administered agmatine.
# [7] = Titration of 1% agmatine salt solutions with 5% aqueous arginine base; format: physicochemical; settings: 1% solution titrated with 5% arginine base, room temperature
# Protocol: FIG. 2 depicts a graphical representation of 1% agmatine salt solutions in a titration with an 5% aqueous arginine base solution at room temperature according to an embodiment of the present disclosure;
# as §1
# [8] = approximately 150 g over three days, oral; cited from earlier work
# [9] = oral, with high-intensity periodized resistance training; cited from earlier work
compound,measurement,setting,value
"COc1c(O)c(C)c(C/C=C(\C)CC/C=C(\C)CC/C=C(\C)CC/C=C(\C)CC/C=C(\C)CC/C=C(\C)CC/C=C(\C)CC/C=C(\C)CC/C=C(\C)CCC=C(C)C)c(O)c1OC [Ubiquinol, ubiquinol]",Maximum power output versus placebo,[1],+0.08 W/kg bw
same,"Maximum power output versus placebo, relative change",[1],+2.5%
"N=C(N)NCCCCN [agmatine, (4-aminobutyl)guanidine]",pKa value of the guanadino group,[2],12.5
same,Cytotoxic effects,[3],no cytotoxic effects
same,Lethal dose,rat,1 to 10 mg/kg
"N=C(N)NCCC[C@H](N)C(=O)O [Arginine base, arginine]",pH of arginine base in solution,pH of buffer media,around 10
O=C([O-])O.[Na+] [sodium bicarbonate],High-intensity intermittent exercise performance,[4],improved
N=C(N)NCCCCN.O=P(O)(O)O [agmatine phosphate],pH of 1% agmatine salt solution,[5],5.7
same,Volume of 0.1N HCl used to lower the pH to around 3 (acidic pH),[6],About 15 mL
same,Volume of base solution required to make the pH alkaline (above 8),[7],About 20 mL
"N=C(N)NCCCCN.O=S(=O)(O)O [agmatine sulfate, reference compound]",pH of 1% agmatine salt solution,[5],4.8
O=C[C@H](O)[C@H](O)[C@H](O)CO [D-ribose],Rate of ATP replenishment over three days of rest compared to placebo sugar (maltodextrin),[8],greater
Cl.Cl.N=C(N)NCCCCN [agmatine dihydrochloride],pH of 1% agmatine salt solution,[5],6.4
"Nc1ncnc2c1ncn2[C@@H]1O[C@H](COP(=O)(O)OP(=O)(O)OP(=O)(O)O)[C@@H](O)[C@H]1O [ATP, adenosine triphosphate]","Muscle mass, strength, and power compared with placebo-matched control",[9],"increases muscle mass, strength, and power"
